Results published in US8962263B2, “Methods and compositions for detecting the activation state of multiple proteins in single cells” (The Board of Trustees of the Leland Stanford Junior …, priority 2001, dated 2015).

Test system: NIH3T3
Assay: staurosporine induced apoptosis in ICAM-2 transduced NIH3T3 (annexin-V binding, BrdU TUNEL)
Format: cell-based, murine
Experimental: A) Pharmacological inhibitors of PI3K abrogate ICAM-2's anti-apoptotic. ICAM-2, or vector transduced BaF3, cells were treated with staurosporine (1, μM) with (unfilled) or without (filled) the addition of 100, nM wortmannin for 24, hours (left bar graph). Apoptosis was determined by nuclear staining and fluorescence microscopy (left bar graph) and by annexin-V binding assay (right bar graph). The proportion of apoptotic cells in each culture without staurosporine was 8%+/−2. The percentage of apoptotic cells is expressed as the mean (bar)+SD of triplicate cultures. ICAM-2, 1CAM2-AC, or vector transduced NIH3T3, were treated with staurosporine ([…]) in the presence or absence of 10, μM LY294002, for 24, hours (right bar graph). DMSO vehicle served as negative control. The percentage of apoptotic cells is expressed as the mean (bar)+/−SD of triplicate cultures. B) Confocal images of PI3K and AKT localization in ICAM-2, (top) or vector control cells (bottom). C) Confocal images of ezrin and the p85, subunit of PI3K (green) localization in ICAM-2, (top) or vector control cells (bottom).
A) The anti-apoptotic effect of ICAM-2, is both wortmannin and LY294002, sensitive. ICAM-2, or vector transduced BaF3, cells were treated with staurosporine (1, μM) with (unfilled) or without (filled) the addition of 100, nM wortmannin for 24 hours. Apoptosis was determined by nuclear staining and fluorescence microscopy (left bar graph) and by annexin-V binding assay (right bar graph). The proportion of apoptotic cells in each culture without staurosporine was 8%±2. The percentage of apoptotic cells is expressed as the mean (bar)±SD of triplicate cultures. ICAM-2, ICAM2-ΔC, or vector transduced NIH3T3, were treated with staurosporine (1, μM) in the presence or absence of 10, μM LY294002, for 24, hours. DMSO vehicle served as negative control. The percentage of apoptotic cells is expressed as the mean (bar)±SD of triplicate cultures. B) ICAM-2, expressing NIH3T3, cells are sensitive to apoptosis in the presence of PI3K inhibitor LY294002. BrdU TUNEL assay was performed in staurosporine (1, μM) or LY294002, (10, μM) treated ICAM-2, ICAM2-ΔC, and control vector transduced NIH3T3, cells. The percentage of apoptotic cells is expressed as the mean (bar)±SD of triplicate cultures.
Apoptosis was determined either by counting pyknotic nuclei, annexin-V binding by flow cytometry, or TUNEL BrdU staining by flow cytometry as indicated. Apoptosis was induced either by staurosporine (1 μm), treatment with anti-mouse Fas (5 μq/ml Santa Cruz Biotechnology (SCB), […] Fas (5 μg/ml Jo2 Biomed) or anti-human Fas (10 ng/ml CH11 Kamiya Biomedical) as indicated in appropriate experiment, IL-3 withdrawal-(24 hrs) or as indicated. For pyknolic nuclei count, NIH3T3 cells were grown on glass coverslips and assayed for apoptosis. Suspension cells were analyzed by nuclear staining with 25 μM acridine orange/25 μm ethidium bromide or 5 μg/ml Hoechst 33342 (Molecular Probes, Eugene, Oreg.). Apoptosis was identified by the presence of characteristic pyknotic nuclei as described (Jacobson and Raff, 1995). At least 5 individual fields were photographed and counted using a Zeiss axioscope fluorescence microscope. For the survival assay 10^6 NIH3T3 cells were plated in 10 cm dishes and incubated overnight at 37° C. The cells were treated with 1 μM staurosporine for 24 hours. The cells were washed and cultured for 24 hours in complete medium. The cells were trypsinized and viable cells counted following trypan blue staining. Untreated cells were counted at the time of treatment. % survival represents (number of viable cells post-treatment)/(number of viable cells pretreatment). FACS based annexin-V-FITC/PI staining was done as described (PharMingen). TUNEL assay was performed as described by manufacturer of Apoptosis BrdU kit (Promega). […]

## CN(C)CCCn1cc(C2=C(c3c[nH]c4ccccc34)C(=O)NC2=O)c2ccccc21 [bisindolymaleimide I]
PKC isozyme inhibitors, system not specified
  ICAM-2 induced survival signal: did not abrogate
Cell type not stated, data not shown
  effect on ICAM-2 anti-apoptotic effect, other kinase inhibitors: not abrogated
